{"source": "ChEMBL document CHEMBL5727813", "about": "“Inhibitors of lysine gingipain” (2020)", "assay": "Inhibition of Lysine Gingipain: The capacities of compounds of the present invention to inhibit the activity of lysine gingipain were measured in a fluorogenic assay similar to those described in Barret Biochemical Journal. 1980, 187(3), 909. The specific assay conditions were as follows. Buffer: pH=7.5, 100 mM Tris-HCl, 75 mM NaCl, 2.5 mM CaCl2, 10 mM cysteine, 1% DMSO after all additions. Protein: 0.1 nM Kgp, isolated from culture of Porphyromonas gingivalis, as described in Pike et al. J. Biol. Chem. 1994, 269(1), 406, and Potempa and Nguyen. Current Protocols in Protein Scienc. 2007, 21.20.1-21.20.27. Fluorogenic substrate: 10 uM Z-His-Glu-Lys-MCA. Time=90 minutes. Temperature=37° C. Each compound: 10 concentrations, starting at either 100 uM or 100 nM, with lower concentrations generated by serial 3-fold dilutions. By testing a range of concentrations for each compound, the concentration required to inhibit the activity of lysine gingipain by 50% (the “IC50”) was determined. Under the described assay conditions, signal-to-noise was excellent, and Z factor was greater than 0.6."}
{"smiles": "NCCCC[C@H](NC(=O)C1CCCC1)C(=O)c1ccccn1", "values": [{"measurement": "IC50", "result": "> 250", "unit": "nM"}]}
